Test results taken from ChEMBL document CHEMBL1201862, “PubChem BioAssay data set” (2004).
Calls of active or inactive are those of the source.

Tests used:
[1] = target: T1, Aminopeptidase N (Plasmodium falciparum FcB1/Columbia, UniProt O96935); test: P. falciparum M1AAP inhibitors, biochemical, fluorogenic H-Leu-NHMec substrate, 1536-well (AID 1445); set-up: species or system Plasmodium falciparum 3D7, 3D7
T1 sequence (O96935 whole entry): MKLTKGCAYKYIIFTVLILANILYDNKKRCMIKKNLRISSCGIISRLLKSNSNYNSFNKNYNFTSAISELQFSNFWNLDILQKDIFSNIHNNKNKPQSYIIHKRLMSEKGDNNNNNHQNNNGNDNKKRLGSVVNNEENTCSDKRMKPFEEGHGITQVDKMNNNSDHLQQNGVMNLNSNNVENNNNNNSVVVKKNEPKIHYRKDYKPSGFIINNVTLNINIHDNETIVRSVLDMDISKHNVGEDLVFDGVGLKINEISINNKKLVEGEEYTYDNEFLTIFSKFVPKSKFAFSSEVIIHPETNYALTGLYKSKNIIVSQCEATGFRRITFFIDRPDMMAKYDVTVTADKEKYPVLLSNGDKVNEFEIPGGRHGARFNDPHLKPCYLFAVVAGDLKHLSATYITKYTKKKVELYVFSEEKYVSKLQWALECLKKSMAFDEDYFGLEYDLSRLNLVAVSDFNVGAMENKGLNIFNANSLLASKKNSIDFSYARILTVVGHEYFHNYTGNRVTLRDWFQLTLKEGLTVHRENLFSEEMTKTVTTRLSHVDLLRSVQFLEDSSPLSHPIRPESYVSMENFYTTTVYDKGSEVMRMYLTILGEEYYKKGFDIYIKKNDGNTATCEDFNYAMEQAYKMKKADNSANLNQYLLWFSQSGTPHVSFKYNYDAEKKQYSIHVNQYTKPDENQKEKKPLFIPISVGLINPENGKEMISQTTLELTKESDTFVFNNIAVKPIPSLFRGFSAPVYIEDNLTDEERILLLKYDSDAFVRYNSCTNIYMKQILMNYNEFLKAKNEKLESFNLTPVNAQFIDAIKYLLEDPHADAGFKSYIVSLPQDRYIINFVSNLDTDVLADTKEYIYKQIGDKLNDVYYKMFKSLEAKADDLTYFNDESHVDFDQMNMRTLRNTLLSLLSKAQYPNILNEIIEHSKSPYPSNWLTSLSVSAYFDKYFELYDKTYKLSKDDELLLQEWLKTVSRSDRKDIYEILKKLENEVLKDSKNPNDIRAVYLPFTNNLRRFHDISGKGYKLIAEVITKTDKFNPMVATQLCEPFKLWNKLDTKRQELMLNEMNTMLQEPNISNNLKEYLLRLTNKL

[2] = target: Mitochondrial peptide methionine sulfoxide reductase (Bos taurus, UniProt P54149); type: functional;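 note: absorbance read-out, biochemical high-throughput dose-response screen for MsrA inhibitors, confirmatory; recombinant bovine MsrA coupled to E. coli TrxB with NADPH and selenocystamine; potency is for inhibitors of MsrA activity on DMSO substrate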
[3] = target: T2, ATP-dependent translocase ABCB1 (Homo sapiens, UniProt P08183); test: ABCG2 efflux pump inhibitor potency, dose response, Ig-MXP3 cells, JC-1, flow cytometry, set 2 (AID 504566); type: functional; details: read-out: EC50_MICROM_;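 note: flow cytometry median green fluorescence of retained JC-1 dye; potency of efflux pump inhibition measured as rising substrate retention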
[4] = target: T2, ATP-dependent translocase ABCB1; test: ABCB1 efflux inhibitor potency, dose response, Jurkat-DNR cells, JC-1, flow cytometry, set 2 (AID 504569); type: functional; details: read-out: EC50_MICROM_;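 note: potency of pump inhibitors that raise cellular JC-1 green fluorescence up to the nicardipine level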
[5] = target: T3, Low molecular weight phosphotyrosine protein phosphatase (Homo sapiens, UniProt P24666); type: functional; details: read-out: IC50_Mean
T3 sequence (P24666 whole entry): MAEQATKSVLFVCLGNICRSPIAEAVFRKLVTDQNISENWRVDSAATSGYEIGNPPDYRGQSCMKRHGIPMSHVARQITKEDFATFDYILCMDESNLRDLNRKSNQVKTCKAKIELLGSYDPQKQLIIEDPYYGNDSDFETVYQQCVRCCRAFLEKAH

[6] = target: T4, Interleukin-8 (Homo sapiens, UniProt P10145); test: Dose Response confirmation of uHTS small molecule hits for cystic fibrosis induced NFkb Inhibitors in a TNFa-induced IL8 counterscreen.; type: functional; details: read-out: IC50_Mean
[7] = target: T4, Interleukin-8; test: Dose Response confirmation of uHTS small molecule hits for cystic fibrosis induced NFkb Inhibitors in a PAF-induced IL8 counterscreen.; type: functional; details: read-out: IC50_Mean

T2 sequence (P08183 whole entry): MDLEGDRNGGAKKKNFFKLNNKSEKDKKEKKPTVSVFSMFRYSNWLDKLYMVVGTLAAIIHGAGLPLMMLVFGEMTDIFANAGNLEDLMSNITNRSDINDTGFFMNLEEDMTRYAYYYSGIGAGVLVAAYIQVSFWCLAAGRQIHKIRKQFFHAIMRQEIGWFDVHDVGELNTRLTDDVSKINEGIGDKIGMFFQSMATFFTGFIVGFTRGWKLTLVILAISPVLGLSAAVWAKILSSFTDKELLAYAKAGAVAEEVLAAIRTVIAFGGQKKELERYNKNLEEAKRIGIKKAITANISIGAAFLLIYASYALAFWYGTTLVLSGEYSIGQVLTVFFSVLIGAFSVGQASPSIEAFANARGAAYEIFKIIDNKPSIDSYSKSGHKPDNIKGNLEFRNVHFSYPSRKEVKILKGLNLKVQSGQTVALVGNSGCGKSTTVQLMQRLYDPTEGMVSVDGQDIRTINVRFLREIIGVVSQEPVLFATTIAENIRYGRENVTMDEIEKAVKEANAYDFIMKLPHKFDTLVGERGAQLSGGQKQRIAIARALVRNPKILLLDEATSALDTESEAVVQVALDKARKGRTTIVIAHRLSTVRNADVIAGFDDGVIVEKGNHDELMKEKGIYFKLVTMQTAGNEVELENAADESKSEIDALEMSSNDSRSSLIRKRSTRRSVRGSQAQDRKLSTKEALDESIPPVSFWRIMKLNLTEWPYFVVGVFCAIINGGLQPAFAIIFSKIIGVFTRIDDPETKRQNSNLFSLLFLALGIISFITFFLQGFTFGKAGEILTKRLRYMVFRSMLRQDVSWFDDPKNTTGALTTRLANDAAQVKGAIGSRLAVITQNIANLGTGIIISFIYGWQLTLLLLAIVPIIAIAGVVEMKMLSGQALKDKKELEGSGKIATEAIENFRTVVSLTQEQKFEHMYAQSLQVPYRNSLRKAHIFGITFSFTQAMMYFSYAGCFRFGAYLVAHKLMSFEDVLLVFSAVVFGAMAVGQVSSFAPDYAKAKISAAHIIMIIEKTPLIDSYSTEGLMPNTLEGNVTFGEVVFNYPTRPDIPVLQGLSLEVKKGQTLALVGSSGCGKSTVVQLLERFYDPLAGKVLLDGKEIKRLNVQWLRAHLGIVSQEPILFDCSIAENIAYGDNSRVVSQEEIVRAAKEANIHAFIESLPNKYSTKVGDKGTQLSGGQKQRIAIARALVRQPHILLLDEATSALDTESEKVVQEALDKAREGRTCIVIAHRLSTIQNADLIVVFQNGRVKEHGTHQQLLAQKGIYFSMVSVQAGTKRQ
T4 sequence (P10145 whole entry): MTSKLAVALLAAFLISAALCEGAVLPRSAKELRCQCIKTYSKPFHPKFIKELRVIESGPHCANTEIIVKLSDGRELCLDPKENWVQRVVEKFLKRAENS
Mitochondrial peptide methionine sulfoxide reductase, sequence (P54149 whole entry): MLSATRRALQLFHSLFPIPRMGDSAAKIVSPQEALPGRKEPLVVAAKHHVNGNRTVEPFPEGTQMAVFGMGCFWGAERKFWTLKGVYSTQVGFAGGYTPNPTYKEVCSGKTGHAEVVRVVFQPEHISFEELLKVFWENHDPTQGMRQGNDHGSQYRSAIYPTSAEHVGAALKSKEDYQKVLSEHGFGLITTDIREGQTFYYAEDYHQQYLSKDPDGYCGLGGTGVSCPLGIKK

With O=C(O)c1cc(-c2ccc(/C=N/N3C(=O)C4C5C=CC(C6CC56)C4C3=O)o2)ccc1Cl (configuration not stated) the IC50 [1] was 90.7 µM (active) and the IC50 [2] was 122 µM (inactive).

With Cc1nc2ncnn2c(N2CCN(C(=O)c3ccco3)CC2)c1Cc1ccccc1 the EC50 [3] was 2.14 µM (active) and the EC50 [4] was 4.97 µM (active).

With C[C@@H](NC(=O)c1ncn2c1c(O)nc1ccc(Br)cc12)c1ccccc1 the IC50 [5] was 25 µM (inactive).

With Cc1ccccc1C(=O)N1CCN(c2ccc(NC(=O)c3cccc(OC(C)C)c3)cc2)CC1 the IC50 [6] was > 79 µM (inactive) and the IC50 [7] was 39.6 µM (inactive).
